The test system of one data set is C57BL/6J mice. The experiment in a line: Ethanol-induced loss of righting reflex (LORR). It counts as in vivo. Here is the method: Eight-week-old male and female C57BL/6J mice (Jackson’s Laboratories, Bar Harbor, ME, USA) were housed 4 mice to a cage (separated by sex) and maintained on 12-h light, 12-h dark cycles (lights on at 0700 h) in the animal facility at the Department of Animal Sciences, Rutgers University. Following 1-week acclimation, animals were given ad libitum access to water and a polyphenol-free diet (PFD; 3.82 kcal/g, 10% fat, 20% protein, 70% carbohydrate; D12450H; Research Diets, Inc., New Brunswick, NJ, USA) for at least 10 days. For PK studies, after an overnight fast, mice were administered 50 mg/kg DHM (dissolved in 0.9% saline with 10% DMSO) by either IP injection or oral gavage. […] Duration of LORR was determined by ability to return upright 3 times within 30 s. To determine whether ethanol-induced tolerance developed, one week (Week 1; Baseline) prior to the 6-week repeated DHM dosing study all mice were oral dose with ethanol (5 g/kg) without any IP injection and LORR was measured. […]
Pharmacokinetic parameters were calculated using noncompartmental analysis. Elimination half-life (T1/2) was calculated with R software from the linear regression of the terminal phase of the log serum concentration-time curve. The AUC0→24 was calculated with OriginLab software by trapezoidal analysis of the serum concentration-time plot. Cmax and Tmax were determined directly from observed data. Data are expressed as mean ± SEM. Statistical significance between AUC0→24 among test groups was calculated with an independent t-test (GraphPad software, San Diego, CA, USA). Time to LORR was analyzed by repeated measured ANOVA. Tolerance was determined by mean split in LORR response and confirmed with paired t-test (Week 1 vs. Week 8). Statistical significance of serum concentrations for individual time points was calculated using a two-way analysis of variance (ANOVA) analysis. […] Statistical significance of electrophysiology results compound GABAergic modulation was determined using a paired t-test (Vehicle control vs. Compound, GraphPad software, San Diego CA, USA). p < 0.05 was considered significant.

The target of the next data set is T1, α5β3γ2 GABAA receptors (Homo sapiens, UniProt P18507+P28472+P31644).
T1 construct: expressed in transfected cells; host or cells: Xenopus oocytes (injected with cDNA)
As to the kind of experiment: Two-electrode voltage clamp electrophysiology in Xenopus oocytes in the presence of GABA. The data set is classed as cell-based. The note with it: compound 10 µM, GABA 10 µM. How it is done: Xenopus oocytes were stored in incubation media (pH 7.5), consisting of ND96 supplemented with 2 mM sodium pyruvate, […] gentamycin, and 10 mL heat inactivated HyClone horse serum. Stage 4 to 5 oocytes were injected with 40 nL of cDNA coding for α5, β3, and γ2 subunits in a ratio of 1:1:10, utilizing a Drummond Nanoject III. Injected oocytes were stored at 18 °C and used in electrophysiology studies within 2–7 days of injection.
Whole cell two-electrode voltage clamp (TEVC) recording were conducted on oocytes in the presence of GABA, according to previously reported methods. Oocytes were voltage clamped at a membrane potential of −70 mV. The oocyte recording chamber was continuously perfused with modified bath solution (MBS) with select compound (10 µM) and GABA (10 µM), with a final concentration of 1% DMSO [22, 44]. […] Oocytes were perfused at a rate of 3 mL/min. Electrophysiology recordings were conducted in triplicate compound for each compound. The change of GABAAR activity was determined by comparison of GABAAR potentiation to the EC20 with control saline in the presence of GABA.
Pharmacokinetic parameters were calculated using noncompartmental analysis. Elimination half-life (T1/2) was calculated with R software from the linear regression of the terminal phase of the log serum concentration-time curve. The AUC0→24 was calculated with OriginLab software by trapezoidal analysis of the serum concentration-time plot. Cmax and Tmax were determined directly from observed data. Data are expressed as mean ± SEM. Statistical significance between AUC0→24 among test groups was calculated with an independent t-test (GraphPad software, San Diego, CA, USA). Time to LORR was analyzed by repeated measured ANOVA. Tolerance was determined by mean split in LORR response and confirmed with paired t-test (Week 1 vs. Week 8). Statistical significance of serum concentrations for individual time points was calculated using a two-way analysis of variance (ANOVA) analysis. Post hoc Bonferroni tests were performed when justified. Statistical significance of electrophysiology results compound GABAergic modulation was determined using a paired t-test (Vehicle control vs. Compound, GraphPad software, San Diego CA, USA). p < 0.05 was considered significant.
(In general: In two-electrode clamp one electrode senses voltage and the other passes current.)

Details of data set [1]: method as in PMID 27951743. As to conditions: rats; cited from earlier work.

T1 sequence (P31644 32-462): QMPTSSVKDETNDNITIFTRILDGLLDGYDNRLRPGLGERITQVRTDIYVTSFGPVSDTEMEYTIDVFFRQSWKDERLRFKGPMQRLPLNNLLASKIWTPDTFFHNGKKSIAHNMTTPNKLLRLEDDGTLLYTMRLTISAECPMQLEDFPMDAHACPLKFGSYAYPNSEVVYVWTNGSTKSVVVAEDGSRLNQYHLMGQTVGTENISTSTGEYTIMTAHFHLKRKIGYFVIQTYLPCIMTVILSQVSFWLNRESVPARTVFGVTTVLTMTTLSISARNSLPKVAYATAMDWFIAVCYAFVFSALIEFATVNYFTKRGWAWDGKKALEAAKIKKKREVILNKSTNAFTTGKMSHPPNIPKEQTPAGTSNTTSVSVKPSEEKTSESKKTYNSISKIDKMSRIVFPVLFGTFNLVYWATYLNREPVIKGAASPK
T1 sequence (P28472 26-473): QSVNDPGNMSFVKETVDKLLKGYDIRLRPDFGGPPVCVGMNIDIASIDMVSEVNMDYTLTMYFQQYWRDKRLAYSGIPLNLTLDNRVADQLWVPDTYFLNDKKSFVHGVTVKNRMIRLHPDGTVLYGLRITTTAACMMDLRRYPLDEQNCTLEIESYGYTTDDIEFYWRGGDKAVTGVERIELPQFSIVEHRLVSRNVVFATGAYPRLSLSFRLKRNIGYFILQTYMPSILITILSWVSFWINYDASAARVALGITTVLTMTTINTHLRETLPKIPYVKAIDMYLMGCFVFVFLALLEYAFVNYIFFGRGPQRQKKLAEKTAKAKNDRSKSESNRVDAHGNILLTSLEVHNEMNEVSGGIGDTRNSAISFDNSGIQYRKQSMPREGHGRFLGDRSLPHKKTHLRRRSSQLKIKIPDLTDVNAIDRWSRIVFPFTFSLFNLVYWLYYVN
T1 sequence (P18507 40-475): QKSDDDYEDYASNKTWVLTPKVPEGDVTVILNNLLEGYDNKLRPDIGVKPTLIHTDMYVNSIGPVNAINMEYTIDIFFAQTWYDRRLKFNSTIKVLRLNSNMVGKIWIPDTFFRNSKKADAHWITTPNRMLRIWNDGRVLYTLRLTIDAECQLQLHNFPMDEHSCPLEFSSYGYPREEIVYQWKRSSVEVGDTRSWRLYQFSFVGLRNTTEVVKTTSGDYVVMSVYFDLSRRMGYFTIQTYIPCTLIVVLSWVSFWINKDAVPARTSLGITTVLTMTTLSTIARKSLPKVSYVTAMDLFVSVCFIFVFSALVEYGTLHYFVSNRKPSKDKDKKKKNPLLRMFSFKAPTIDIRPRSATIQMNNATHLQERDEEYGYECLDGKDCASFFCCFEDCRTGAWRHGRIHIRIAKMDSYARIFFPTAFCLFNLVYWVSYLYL

In the case of `O=C1c2c(O)cc(O)cc2O[C@H](c2cc(O)c(O)c(O)c2)[C@H]1O` [DHM, Dihydromyricetin], in the data set with C57BL/6J mice (C57BL/6J mice, DHM 50 mg/kg IP 0 or 15 min prior to ethanol PO 5 g/kg), the “ethanol-induced loss of righting reflex” value is “significantly reduced”. Moreover, the “LORR compared with vehicle treated mice” value in the data set with C57BL/6J mice (female mice, DHM 50 mg/kg IP at time 0 and 45 min before oral ethanol 5 g/kg, p < 0.05) is listed as “reducing LORR”. In the data set on C57BL/6J mice (responsive mice (5 males/3 females), DHM 50 mg/kg IP at time 0 and 15 min prior to ethanol PO, p < 0.05), the LORR entry is on record as “demonstrated a reduction in LORR”. In addition, the GABAAR potentiation entry at α5β3γ2 GABAA receptors is “+43.2%”; on α5β3γ2 GABAA receptors (mean ± SEM) it was “+43.2 ± 5.6”. In addition, in data set [1], the oral absolute bioavailability is 4.02%.
